Experimental findings from paper PMC5038320, “Cryptosporidium and Toxoplasma Parasites Are Inhibited by a Benzoxaborole Targeting Leucyl-tRNA Synthetase” (Antimicrobial Agents and Chemotherapy, 2016) are described below.

Molecules are shown by their SMILES. Read-outs that look alike come from different tables or passages of the source.

Test [1] has as its target T1, C. muris cytosolic leucyl-tRNA synthetase (CmLeuRS) editing domain (Cryptosporidium muris, UniProt B6AA20).
T1 construct: gene CMU_041310; connective polypeptide domain (CP1) residues 254 to 541
Kind of test: ITC; crystal structure ([…] Å). In kind it is binding.

The target in test [2] is T1, C. muris cytosolic leucyl-tRNA synthetase (CmLeuRS) editing domain. Nature of the test: ITC; crystal structure ([…] Å). In kind it is binding. The source holds these as a separate data set. (In ITC the heat of successive injections is recorded.)

T1 sequence (B6AA20 entry or part of it): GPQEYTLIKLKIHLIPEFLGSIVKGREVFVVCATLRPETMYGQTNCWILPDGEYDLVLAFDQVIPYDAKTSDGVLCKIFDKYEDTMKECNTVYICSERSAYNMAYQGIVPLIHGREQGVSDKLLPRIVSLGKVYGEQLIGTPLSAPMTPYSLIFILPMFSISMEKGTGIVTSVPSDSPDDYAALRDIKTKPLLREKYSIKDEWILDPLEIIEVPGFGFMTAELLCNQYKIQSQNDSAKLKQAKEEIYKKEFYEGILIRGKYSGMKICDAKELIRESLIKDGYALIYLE

A word on the Kd: it is the concentration at which binding is half-saturated. Read a low Kd as tighter binding. In test [1], `CC[C@H](C)[C@H](N)C(=O)N[C@@H]1[C@H](O)[C@@H](CO)O[C@H]1n1cnc2c(N)ncnc21` [Ile2AA, 2-(L-isoleucyl)amino-2-deoxyadenosine] came in with a dissociation constant (Kd) of 215 µM.
The compound `CCC[C@H](N)C(=O)N[C@@H]1[C@H](O)[C@@H](CO)O[C@H]1n1cnc2c(N)ncnc21` [Nva2AA, 2-(L-norvalyl)amino-2-deoxyadenosine] displayed a Kd in test [2] of 213 µM.
